Values of other authors, collected in US11883453B2, “Formulation based on medicinal plant, or part or extract thereof, use of the formulation and product including said formulation” (priority 2018, dated 2024).

Key:
[1] = rate proportional to concentration
[2] = disk-diffusion
3T3 fibroblast strains [3] = conditions: MTT, 3T3 fibroblasts
3T3 fibroblast strains [4] = conditions: Scratch Assay, 3T3 fibroblasts, compared to Calendula extract

Row | Structure (SMILES) | Elimination of free radicals [1] | Antimicrobial activity (inhibition halos in agar) [2] | Cytotoxicity (3T3 fibroblast strains [3]) | Effect on in vitro healing (3T3 fibroblast strains [4])
1 | C=C(C)[C@@H]1CC[C@]2(C)CC[C@]3(C)[C@H](CC[C@@H]4[C@@]5(C)CC[C@H](O)C(C)(C)[C@@H]5CC[C@]43C)[C@@H]12 [Lupeol] | excellent properties to eliminate free radicals | confirmed the antimicrobial activity | no toxicity found | 
2 | CCCCCCCCCCCCCC(=O)OC1CCC2(C)C(CCC3(C)C2CCC2C4C(C)C(C)=CCC4(C)C(O)CC23C)C1(C)C (centres unmarked) [faradiol myristate] |  |  |  | partial role in the healing process compared to the extract
3 | CCCCCCCCCCCCCCCC(=O)OC1CCC2(C)C(CCC3(C)C2CCC2C4C(C)C(C)=CCC4(C)C(O)CC23C)C1(C)C (centres unmarked) [faradiol palmitate] |  |  |  | partial role in the healing process compared to the extract
